Literature values as cited in PubChem BioAssay AID1259409 (Chemical Carcinogenesis Research Information System (CCRIS), 2018).

System: rodent chemically induced tumor inhibition, incidence and multiplicity
Experiment: CCRIS tumor inhibitor studies
Details: Dose [Inhibitor]: 0, Route [Inhibitor]: ORAL, Species: RAT, Promoter: NONE USED

O=c1oc2c(O)c(O)cc3c(=O)oc4c(O)c(O)cc1c4c23
tumour outcome (control, treated, inhibition, significance) (Carcinogen: DIETHYLNITROSAMINE, 55-18-5, N-METHYLNITROSOUREA, 684-93-5, 1,2-DIMETHYLHYDRAZINE, 540-73-8, N-BUTYL-N-(4-HYDROXYB, Carcinogen: DIETHYLNITROSAMINE, 55-18-5, N-METHYLNITROSOUREA, 684-93-5, 1,2-DIMETHYLHYDRAZINE, 540-73-8, N-BUTYL-N-(4-HYDROXYB, 1% IN DIET FOR 4 WK BEGINNING 1 DAY PRIOR TO CARCINOGEN TREATMENT (STUDY DURATION: 36 WK), Strain/Sex: F344/MALE, Target Tissue: Type of Lesion: SMALL INTESTINE: CARCINOMA, Dose [Carcinogen]: 100 MG/KG DEN ONCE, 20 MG/KG MNU 4 TIMES, 40 MG/KG DMH 4 TIMES, 0.05% BBN IN DRINKING WATER FOR 2 WK, 0.1% DHPN IN D, Dose [Carcinogen]: 100 MG/KG DEN ONCE, 20 MG/KG MNU 4 TIMES, 40 MG/KG DMH 4 TIMES, 0.05% BBN IN DRINKING WATER FOR 2 WK, 0.1% DHPN IN D): 5/14 (36%), 0/12 (0%), 100%, p<0.05 | tumour outcome (control, treated, inhibition, significance) (Carcinogen: DIETHYLNITROSAMINE, 55-18-5, N-METHYLNITROSOUREA, 684-93-5, 1,2-DIMETHYLHYDRAZINE, 540-73-8, N-BUTYL-N-(4-HYDROXYB, Carcinogen: DIETHYLNITROSAMINE, 55-18-5, N-METHYLNITROSOUREA, 684-93-5, 1,2-DIMETHYLHYDRAZINE, 540-73-8, N-BUTYL-N-(4-HYDROXYB, 1% IN DIET FOR 4 WK BEGINNING 1 DAY PROIR TO CARCINOGEN TREATMENT (STUDY DURATION: 36 WK), Strain/Sex: F344/MALE, Target Tissue: Type of Lesion: LUNG: ADENOMA, Dose [Carcinogen]: 100 MG/KG DEN ONCE, 20 MG/KG MNU 4 TIMES, 40 MG/KG DMH 4 TIMES, 0.05% BBN IN DRINKING WATER FOR 2 WK, 0.1% DHPN IN D, Dose [Carcinogen]: 100 MG/KG DEN ONCE, 20 MG/KG MNU 4 TIMES, 40 MG/KG DMH 4 TIMES, 0.05% BBN IN DRINKING WATER FOR 2 WK, 0.1% DHPN IN D): 6/14 (43%), 1/12 (8%), 81%, not significant | tumour outcome (control, treated, inhibition, significance) (Carcinogen: DIETHYLNITROSAMINE, 55-18-5, N-METHYLNITROSOUREA, 684-93-5, 1,2-DIMETHYLHYDRAZINE, 540-73-8, N-BUTYL-N-(4-HYDROXYB, Carcinogen: DIETHYLNITROSAMINE, 55-18-5, N-METHYLNITROSOUREA, 684-93-5, 1,2-DIMETHYLHYDRAZINE, 540-73-8, N-BUTYL-N-(4-HYDROXYB, 1% IN DIET FOR 32 WK BEGINNING POST CARCINOGEN TREATMENT (STUDY DURATION: 36 WK), Strain/Sex: F344/MALE, Target Tissue: Type of Lesion: KIDNEY: ADENOMA, Dose [Carcinogen]: 100 MG/KG DEN ONCE, 20 MG/KG MNU 4 TIMES, 40 MG/KG DMH 4 TIMES, 0.05% BBN IN DRINKING WATER FOR 2 WK, 0.1% DHPN IN D, Dose [Carcinogen]: 100 MG/KG DEN ONCE, 20 MG/KG MNU 4 TIMES, 40 MG/KG DMH 4 TIMES, 0.05% BBN IN DRINKING WATER FOR 2 WK, 0.1% DHPN IN D): 4/14 (29%), 2/13 (15%), 48%, not significant | tumour outcome (control, treated, inhibition, significance) (Carcinogen: DIETHYLNITROSAMINE, 55-18-5, N-METHYLNITROSOUREA, 684-93-5, 1,2-DIMETHYLHYDRAZINE, 540-73-8, N-BUTYL-N-(4-HYDROXYB, Carcinogen: DIETHYLNITROSAMINE, 55-18-5, N-METHYLNITROSOUREA, 684-93-5, 1,2-DIMETHYLHYDRAZINE, 540-73-8, N-BUTYL-N-(4-HYDROXYB, 1% IN DIET FOR 32 WK BEGINNING POST CARCINOGEN TREATMENT (STUDY DURATION: 36 WK), Strain/Sex: F344/MALE, Target Tissue: Type of Lesion: KIDNEY: NEPHROBLASTOMA, Dose [Carcinogen]: 100 MG/KG DEN ONCE, 20 MG/KG MNU 4 TIMES, 40 MG/KG DMH 4 TIMES, 0.05% BBN IN DRINKING WATER FOR 2 WK, 0.1% DHPN IN D, Dose [Carcinogen]: 100 MG/KG DEN ONCE, 20 MG/KG MNU 4 TIMES, 40 MG/KG DMH 4 TIMES, 0.05% BBN IN DRINKING WATER FOR 2 WK, 0.1% DHPN IN D): 7/14 (50%), 5/13 (38%), 24%, not significant | tumour outcome (control, treated, inhibition, significance) (Carcinogen: DIETHYLNITROSAMINE, 55-18-5, N-METHYLNITROSOUREA, 684-93-5, 1,2-DIMETHYLHYDRAZINE, 540-73-8, N-BUTYL-N-(4-HYDROXYB, Carcinogen: DIETHYLNITROSAMINE, 55-18-5, N-METHYLNITROSOUREA, 684-93-5, 1,2-DIMETHYLHYDRAZINE, 540-73-8, N-BUTYL-N-(4-HYDROXYB, 1% IN DIET FOR 32 WK BEGINNING POST CARCINOGEN TREATMENT (STUDY DURATION: 36 WK), Strain/Sex: F344/MALE, Target Tissue: Type of Lesion: LARGE INTESTINE: CARCINOMA, Dose [Carcinogen]: 100 MG/KG DEN ONCE, 20 MG/KG MNU 4 TIMES, 40 MG/KG DMH 4 TIMES, 0.05% BBN IN DRINKING WATER FOR 2 WK, 0.1% DHPN IN D, Dose [Carcinogen]: 100 MG/KG DEN ONCE, 20 MG/KG MNU 4 TIMES, 40 MG/KG DMH 4 TIMES, 0.05% BBN IN DRINKING WATER FOR 2 WK, 0.1% DHPN IN D): 3/14 (21%), 6/12 (50%), -138%, not significant | tumour outcome (control, treated, inhibition, significance) (Carcinogen: DIETHYLNITROSAMINE, 55-18-5, N-METHYLNITROSOUREA, 684-93-5, 1,2-DIMETHYLHYDRAZINE, 540-73-8, N-BUTYL-N-(4-HYDROXYB, Carcinogen: DIETHYLNITROSAMINE, 55-18-5, N-METHYLNITROSOUREA, 684-93-5, 1,2-DIMETHYLHYDRAZINE, 540-73-8, N-BUTYL-N-(4-HYDROXYB, 1% IN DIET FOR 32 WK BEGINNING POST CARCINOGEN TREATMENT (STUDY DURATION: 36 WK), Strain/Sex: F344/MALE, Target Tissue: Type of Lesion: SMALL INTESTINE: ADENOMA, Dose [Carcinogen]: 100 MG/KG DEN ONCE, 20 MG/KG MNU 4 TIMES, 40 MG/KG DMH 4 TIMES, 0.05% BBN IN DRINKING WATER FOR 2 WK, 0.1% DHPN IN D, Dose [Carcinogen]: 100 MG/KG DEN ONCE, 20 MG/KG MNU 4 TIMES, 40 MG/KG DMH 4 TIMES, 0.05% BBN IN DRINKING WATER FOR 2 WK, 0.1% DHPN IN D): 6/14 (43%), 0/12 (0%), 100%, < p<0.05 | tumour outcome (control, treated, inhibition, significance) (Carcinogen: DIETHYLNITROSAMINE, 55-18-5, N-METHYLNITROSOUREA, 684-93-5, 1,2-DIMETHYLHYDRAZINE, 540-73-8, N-BUTYL-N-(4-HYDROXYB, Carcinogen: DIETHYLNITROSAMINE, 55-18-5, N-METHYLNITROSOUREA, 684-93-5, 1,2-DIMETHYLHYDRAZINE, 540-73-8, N-BUTYL-N-(4-HYDROXYB, 1% IN DIET FOR 32 WK BEGINNING POST CARCINOGEN TREATMENT (STUDY DURATION: 36 WK), Strain/Sex: F344/MALE, Target Tissue: Type of Lesion: SMALL INTESTINE: CARCINOMA, Dose [Carcinogen]: 100 MG/KG DEN ONCE, 20 MG/KG MNU 4 TIMES, 40 MG/KG DMH 4 TIMES, 0.05% BBN IN DRINKING WATER FOR 2 WK, 0.1% DHPN IN D, Dose [Carcinogen]: 100 MG/KG DEN ONCE, 20 MG/KG MNU 4 TIMES, 40 MG/KG DMH 4 TIMES, 0.05% BBN IN DRINKING WATER FOR 2 WK, 0.1% DHPN IN D): 5/14 (36%), 1/12 (8%), 78%, not significant | tumour outcome (control, treated, inhibition, significance) (Carcinogen: DIETHYLNITROSAMINE, 55-18-5, N-METHYLNITROSOUREA, 684-93-5, 1,2-DIMETHYLHYDRAZINE, 540-73-8, N-BUTYL-N-(4-HYDROXYBU, Carcinogen: DIETHYLNITROSAMINE, 55-18-5, N-METHYLNITROSOUREA, 684-93-5, 1,2-DIMETHYLHYDRAZINE, 540-73-8, N-BUTYL-N-(4-HYDROXYBU, 1% IN DIET FOR 32 WK BEGINNING POST CARCINOGEN TREATMENT (STUDY DURATION: 36 WK), Strain/Sex: F344/MALE, Target Tissue: Type of Lesion: LARGE INTESTINE: ADENOMA, Dose [Carcinogen]: 100 MG/KG DEN ONCE, 20 MG/KG MNU 4 TIMES, 40 MG/KG DMH 4 TIMES, 0.05% BBN IN DRINKING WATER FOR 2 WK, 0.1% DHPN IN D, Dose [Carcinogen]: 100 MG/KG DEN ONCE, 20 MG/KG MNU 4 TIMES, 40 MG/KG DMH 4 TIMES, 0.05% BBN IN DRINKING WATER FOR 2 WK, 0.1% DHPN IN D): 7/14 (50%), 3/12 (25%), 50%, not significant | tumour outcome (control, treated, inhibition, significance) (Carcinogen: DIETHYLNITROSAMINE, 55-18-5, N-METHYLNITROSOUREA, 684-93-5, 1,2-DIMETHYLHYDRAZINE, 540-73-8, N-BUTYL-N-(4-HYDROXYBU, Carcinogen: DIETHYLNITROSAMINE, 55-18-5, N-METHYLNITROSOUREA, 684-93-5, 1,2-DIMETHYLHYDRAZINE, 540-73-8, N-BUTYL-N-(4-HYDROXYBU, 1% IN DIET FOR 32 WK BEGINNING POST CARCINOGEN TREATMENT (STUDY DURATION: 36 WK), Strain/Sex: F344/MALE, Target Tissue: Type of Lesion: LUNG: ADENOMA, Dose [Carcinogen]: 100 MG/KG DEN ONCE, 20 MG/KG MNU 4 TIMES, 40 MG/KG DMH 4 TIMES, 0.05% BBN IN DRINKING WATER FOR 2 WK, 0.1% IN DRINKI, Dose [Carcinogen]: 100 MG/KG DEN ONCE, 20 MG/KG MNU 4 TIMES, 40 MG/KG DMH 4 TIMES, 0.05% BBN IN DRINKING WATER FOR 2 WK, 0.1% IN DRINKI): 6/14 (43%), 1/13 (8%), 81%, p<0.05 | tumour outcome (control, treated, inhibition, significance) (Carcinogen: N-NITROQUINOLINE-1-OXIDE, 56-57-5, 400 PPM IN DIET FOR 7 WK BEGINNING 1 WK PRIOR TO START OF CARCINOGEN TREATMENT (STUDY DURATION: 32 WK), Strain/Sex: F344\MALE, Target Tissue: Type of Lesion: TONGUE: CARCINOMA, Dose [Carcinogen]: 20 PPM IN DRINKING WATER FOR 5 WK): 9/15 (60%), 0/15 (0%), 100%, p=0.00035 | outcome (Carcinogen: N-NITROSOBENZYLMETHYLAMINE, 937-40-6, 0.4 G/KG IN DIET BEGINNING 2 WK PRIOR TO FIRST CARCINOGEN DOSE (STUDY DURATION: 20 WK), Strain/Sex: F-344/MALE, Target Tissue: Type of Lesion: ESOPHAGUS: TUMOR, Dose [Carcinogen]: 0.5, 1.25 MG/KG 1/WK FOR 18 WK): 15/15 (100%), 14/15 (93%), 7%, not calculated (low dose carcinogen); 15/15 (100% | tumour outcome (control, treated, inhibition, significance) (Carcinogen: N-NITROSOBENZYLMETHYLAMINE, 937-40-6, 0.4 G/KG IN DIET BEGINNING 2 WK PRIOR TO FIRST CARCINOGEN DOSE (STUDY DURATION: 27 WK), Strain/Sex: F-344/MALE, Target Tissue: Type of Lesion: ESOPHAGUS: TUMOR, Dose [Carcinogen]: 0.5, 1.25 MG/KG 1/WK FOR 18 WK): 15/15 (100%), 15/15 (100%), 0%, not calculated (low dose carcinogen); 15/15 (100
